Laboratory results from PMC2669657 (Journal of the American Chemical Society, 2009).

Tests used:
[1] = target: T1, human orotate phosphoribosyltransferase (HsOPRT), OPRT domain of UMP synthase (Homo sapiens, UniProt P11172); test: steady-state kinetics; format: biochemical; conditions: read-out: OMP / Km
T1 sequence (P11172 2-245): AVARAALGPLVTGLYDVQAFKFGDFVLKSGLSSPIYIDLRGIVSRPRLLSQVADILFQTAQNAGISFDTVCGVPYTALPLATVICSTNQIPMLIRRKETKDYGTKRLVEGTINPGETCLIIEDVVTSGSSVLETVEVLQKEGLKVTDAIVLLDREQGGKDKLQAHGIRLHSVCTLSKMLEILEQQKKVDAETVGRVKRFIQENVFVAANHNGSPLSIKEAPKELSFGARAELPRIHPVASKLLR

[2] = target: Plasmodium falciparum orotate phosphoribosyltransferase (PfOPRT) (Plasmodium falciparum, UniProt Q8N0R1); format: biochemical
[3] = target: T1, human orotate phosphoribosyltransferase (HsOPRT), OPRT domain of UMP synthase; format: biochemical
steady-state kinetics = substrate: O=C(O)CP(=O)(O)O; test: steady-state kinetics; format: biochemical, Plasmodium falciparum; conditions: Mg2+ ([…] MgCl2 in assay)
purified protein = substrate: O=C(O)c1cc(=O)[nH]c(=O)n1[C@@H]1O[C@H](COP(=O)(O)O)[C@@H](O)[C@H]1O; test: purified protein; format: biochemical, Plasmodium falciparum; conditions: Mg2+ ([…] MgCl2 in assay); pH 8.0; 25.0 °C

O=C(O)c1cc(=O)[nH]c(=O)n1[C@@H]1O[C@H](COP(=O)(O)O)[C@@H](O)[C@H]1O [orotidine 5′-monophosphate] was tested, and the Km [1] was 1.55 ± 0.61 µM.

In the case of O=[N+]([O-])c1ccc(O[C@@H]2O[C@H](COP(=O)(O)O)[C@@H](O)[C@H]2O)cc1 [p-nitrophenyl β-D-ribose 5′-phosphate], the Ki [2] is reported as 40 ± 21 nM.

O=[N+]([O-])c1ccc(O[C@@H]2O[C@H](CO)[C@@H](O)[C@H]2O)cc1 [p-nitrophenyl β-D-ribose] was tested, and the Ki [2] was 188 ± 40 nM and the Ki [3] was 121 ± 30 nM.

B1: Plasmodium falciparum orotate phosphoribosyltransferase (PfOPRT) (Plasmodium falciparum) (protein)
chain: MTTIKENEFLCDEEIYKSFVHLKDKICEERKKKELVNNNIDNVNFNDDDDNNYDDDGNSYSSYIKEMKKLLKVVLLKYKALKFGEFILKSKRKSNYFFSSGVLNNIVSSNIICFLLSELILKNKLSFDYLLGASYKGIPMVSLTSHFLFESKKYSNIFYLYDRKEKKEYGDKNVIVGNLDDDDKDILNLKKKTKNNQDEEKKNIIIIDDVFTCGTALTEILAKLKTYEHLKVVAFIVLLNRNEYEINENNQKIYFKDIFEKRVGIPLYSILSYKDDIQSMI
With B1 the Km (steady-state kinetics) was 1590 µM, the Km (purified protein) was 3.73 ± 1.36 µM and the kcat (purified protein) was 1.96 ± 0.29 s⁻¹. For the same molecule, the kcat/Km (purified protein) was 530000 M⁻¹ s⁻¹.
